Assay [1] concerns miR-122. As to the kind of experiment: miR-122 quantitation by quantitative RT-PCR in WRO cells. To be noted: WRO-vector cells treated with 10 μM GW9662 for 24 hours. The format is cell-based. On the procedure: (§1) To generate stable lines, cells were seeded at 1×10^6 cells per 100 mm petri dish and transfected 24 hours later in multiples of six, with 10 μg each of vector or PPFP using LT-1 (Minus Bio, Madison, Wis.). For the generation of DN-PPARγ and miR stable cells, the DN-PPARγ construct (Reddi et al., Expression of the PAX8/PPARγ Fusion Protein Is Associated with Decreased Neovascularization In Vivo: Impact on Tumorigenesis and Disease Prognosis, Genes and Cancer, (2010)), mmu-Null, and mmu-miR122-EGFP constructs (Cellbio labs) were used. After 72 hours, WRO-Vector, WRO-PPFP, WRO-DN-PPARγ, FTC-Vector, and FTC−PPFP cells were obtained by selection in media containing 400 μg/mL of G418 (Invitrogen) with media changes every 72 hours. WRO-miR-Null and WRO-miR-122 cells were generated using 2.5 μg/mL puromycin selection. Pools of cells were harvested and analyzed for mRNA and microRNA expression by quantitative RT-PCR and for polypeptide expression by Western blotting.
(§2) RNA from each group of cells was isolated using TriZol Reagent (Invitrogen). […] PAX8/PPARγ fusion gene was detected by PCR using 5 μL of cDNA and a sense primer from exon 7 of PAX8 (5′-CGCGGATCCGCATT-GACTCACAGAGCA-3; SEQ ID NO:1; see, also, GenBank Accession No. NM_013953 and GI No.81295803) and antisense primer from exon 1 of PPARγ1 (5′-[…]-3; SEQ ID NO:2; GenBank Accession No. NM_138712 and GI No. 116284369). […]

Assay [2] has as its system PPARγ. The experiment in a line: PPRE luciferase reporter assay in WRO cells. Type of assay: cell-based. On the procedure: (§3) Cells (0.3×10^6 cells/well) in six well plates were transfected using LT-1 reagent (Mirus, Madison Wis.) with 10 ng of Renilla (Promega, Madison, Wis.) and […] of PPRE-Aco-Luc reporter in triplicate. After 24 hours, cells were lysed and assayed using the dual luciferase kit (Promega). Data was calculated as a ratio of the luciferase to renilla expression and plotted as fold-change compared to vector. To test the effect of GW9662 on PPARγ activity, cells were treated 18 hours post transfection with either 2 μL DMSO or 10 μM GW9662 (a potent antagonist of PPARγ) for 24 hours prior to harvest and assay.
For orientation: In a reporter assay the amount or activity of a reporter protein is the signal.

Assay [3] concerns miR-122. The experiment in a line: miR-122 quantitation in FTC-133 cells. Type of assay: cell-based. The procedure:
as §1, §2

Assay [4] relates to WRO cells. The experiment in a line: in vitro cell growth of stable WRO cells (absorbance at 490 nm). To be noted: stable WRO cells compared to WRO-vector cells; 72 hours. The format is cell-based. On the procedure: as §1
Assay [5] relates to WRO cells. The experiment in a line: in vivo xenograft tumor formation assay, WRO stable cells. To be noted: WRO-PPFP cells, by 5 weeks. More on the design: species or system athymic nude mice. On the procedure:
(§4) Stable cells (10^7) were resuspended in 100 μL of growth media and injected subcutaneously into both flanks of 5 week-old athymic nude mice (Fox1^nu/nu, Harlan, Indianapolis, Ind.). At least three mice were injected per group. Tumor size was determined weekly by measuring tumor length (L), width (W), and height (H) using vernier calipers (Vtumor=0.5236 LWH).

The next assay deals with FTC-133 cells. The experiment in a line: in vivo xenograft tumor formation assay, FTC-133 stable cells. To be noted: FTC-133-PPFP cells (PTEN-null); by 4 weeks; vs vector only. More on the design: species or system athymic nude mice. The procedure:
as §4

The test system of assay [6] is miR-122. The experiment in a line: miR-122 quantitation in WRO xenografts. The format is in vivo, athymic nude mice. The procedure: RNA from each group of cells was isolated using TriZol Reagent (Invitrogen). RNA (1 μg) was reverse transcribed with oligo-dT primers using Message Sensor RT kit (Ambion, Austin, Tex.). PAX8/PPARγ fusion gene was detected by PCR using 5 μL of cDNA and a sense primer from exon 7 of PAX8 (5′-CGCGGATCCGCATT-GACTCACAGAGCA-3; SEQ ID NO:1; see, also, GenBank Accession No. NM_013953 and GI No.81295803) and antisense primer from exon 1 of PPARγ1 (5′-[…]-3; SEQ ID NO:2; GenBank Accession No. NM_138712 and GI No. 116284369). Glyceraldehyde 3-phosphate dehydrogenase (GAPDH) was amplified using kit primers. Xenografts were harvested at weeks 1 and 2 post induction and homogenized in T-PER (Pierce, Rockford, Ill.). RNA was extracted, and RT-PCR was performed for PPFP and GAPDH. Annealing temperature for PPFP and GAPDH was 55° C. for 30 seconds. miR-122 status was verified using TaqMan microRNA assays (Applied Biosystems) as per the manufacturer's instructions.
as §4

For assay [7], the system named is PPARγ. The experiment in a line: PPRE luciferase reporter assay in FTC-133 cells. Type of assay: cell-based. To be noted: FTC-133-PPFP cells. On the procedure: as §3
In assay [8] the test system is ADAM-17. As to the kind of experiment: ADAM-17 transcript levels in WRO cells. The format is cell-based. To be noted: stable WRO cells.
For assay [9], the system named is ADAM-17. The experiment in a line: ADAM-17 transcript levels in immortalized thyrocytes. Type of assay: cell-based. To be noted: immortalized thyrocytes (N-Thy-ori cells) expressing PPFP.
Another assay concerns CD-31. The experiment in a line: microvessel density by CD-31 staining of WRO xenografts. The format is in vivo, athymic nude mice. To be noted: WRO xenografts compared to control xenografts. On the procedure:
Four tumors per group were formalin-fixed, paraffin-embedded, and individual sections stained with CD-31 (sc-1506-R, Santa Cruz, 1:200 dilution) specific antibody for 30-60 minutes and counterstained with hematoxylin. Antigen retrieval was done in EDTA at […] for 30 minutes after deparaffinization. Sections were blocked with peroxidase for 5 minutes and protein for 5 minutes. Antibody staining was visualized using Dako Envision plus System for 15 minutes followed by DAB chromogen for 10 minutes. Separate tumor sections were stained with hematoxylin and eosin to visualize tumor histology.
Stained slides were scanned using the Hamamatsu NanoZoomer (Bacus Laboratories, Inc., Chicago, Ill.). Digital images composed of multiple tiles (4096×64 pixel) were captured at 20× magnification. Image analysis was conducted as described elsewhere (Monahan et al., Endocrinology 150:4386-4394 (2009)). For each tumor section, the relative signal intensity from 10 randomly chosen fields (205×300 pixel) was quantified by histogram analysis (Adobe Photoshop). Data was expressed as signal intensity (signal pixel count divided by total image pixel count).

Another assay has as its system ARO cells. The experiment in a line: in vivo xenograft tumor formation assay, ARO colon cancer cells. To be noted: ARO-PPFP colon cancer cells; by 4 weeks. More on the design: species or system athymic nude mice. On the procedure: (§5) To generate stable lines, cells were seeded at 1×10^6 cells per 100 mm petri dish and transfected 24 hours later in multiples of six, with 10 μg each of vector or PPFP using LT-1 (Minus Bio, Madison, Wis.). After 72 hours, ARO-Vector, ARO-PPFP, DRO-Vector, DRO-PPFP, FRO-Vector, FRO-PPFP, KTC-3-Vector, and KTC-3-PPFP cells were obtained by selection in media containing 400 μg/mL of G418 (Invitrogen) with media changes every 72 hours. Pools of cells were harvested and analyzed for PPFP expression by reverse transcriptase PCR.
(§6) Stable cells (10^7) were resuspended in 100 μL of growth media and injected subcutaneously into both flanks of 5 week-old athymic nude mice (Fox1^nu/nu Harlan, Indianapolis, Ind.). At least three mice were injected per group. Tumor size was determined weekly by measuring tumor length (L), width (W), and height (H) using vernier calipers (Vtumor=0.5236 LWH).

A further assay has as its system DRO cells. As to the kind of experiment: in vivo xenograft tumor formation assay, DRO melanoma cells. Also noted: species or system athymic nude mice. To be noted: DRO-PPFP melanoma cells; by 6 weeks. On the procedure:
as §5, §6

A further assay relates to FRO cells. As to the kind of experiment: in vivo xenograft tumor formation assay, FRO anaplastic thyroid cancer cells. More on the design: species or system athymic nude mice. To be noted: FRO-PPFP anaplastic thyroid cancer cells; in 5 weeks. On the procedure:
as §5, §6

The test system of a further assay is KTC-3 cells. As to the kind of experiment: in vivo xenograft tumor formation assay, KTC-3 anaplastic thyroid cancer cells. To be noted: KTC-3-PPFP anaplastic thyroid cancer cells; in 6 weeks. More on the design: species or system athymic nude mice. The procedure:
as §5, §6

Bounds are passed on as bounds.

`O=C(Nc1ccccc1)c1cc([N+](=O)[O-])ccc1Cl` [GW9662, reference compound]: the miR-122 expression entry in the assay on miR-122 [1] is recorded as “not accompanied by increased miR-122 expression”. Besides, in the assay with PPARγ [2] (WRO-vector cells treated with 10 μM GW9662 for 24 hours), the PPRE activity result is reported as “significant decrease in PPRE activity”.
Take “PTEN: PTEN transiently expressed from an expression plasmid in FTC-133 cells [reference compound]”: the “increase in miR-122 expression” value in the assay with miR-122 [3] (transient expression of PTEN in FTC-133(+PPFP) cells vs vector only cells) amounted to 77 fold.
Turning to “PPFP: PAX8/PPARγ fusion protein, constitutively expressed from a CMV promoter construct in stably transfected cancer cell lines”, the “decrease (inhibition) of in vitro cell growth” value with WRO cells [4] is on record as 19%. Moreover, the “inhibition of xenograft tumor progression” value is reported as 72% in the assay on WRO cells [5]; 9 fold in the assay with WRO cells [5] (vs vector only); below 2 fold with FTC-133 cells; 39.5% with ARO cells; 57.5% in the assay with DRO cells; 80.1% in the assay with FRO cells. Moreover, the “inhibition of xenograft tumor progression” value with KTC-3 cells was found to be 77.2%. The “increase in miR-122 expression” value in the assay on miR-122 [6] is recorded as 40.0 (p < 0.054) fold. Moreover, in the assay on miR-122 [3] (FTC-133(+PPFP) cells (PTEN-null)), the miR-122 expression result was “did not increase miR-122 expression”. In the assay with PPARγ [2] (stable WRO cells vs vector), the “inhibition of PPARγ activity (activation of PPRE)” value was found to be 29%. Moreover, the “inhibition of activation of PPRE” value in the assay with PPARγ [7] turned out to be 69%. Besides, the “reduction of ADAM-17 mRNA expression” value is given as 50% with ADAM-17 [8] and “not” with ADAM-17 [9]. Further, the “decrease in microvessel density (CD-31 staining)” value in the assay on CD-31 is 2.1 fold.

For the origin of these results see patent publication US20130237590A1, “ASSESSING THYROID NEOPLASMS” (MAYO FOUNDATION FOR MEDICAL EDUCATION AND RESEARCH, priority 2010, published 2013).
